Legend:
T-47D cells [1] = test: Cell cycle analysis by flow cytometry (propidium iodide); format: cell-based; details: 5 µM
Experimental: The distribution of cell cycle was determined by flow cytometric assay after using propidium iodide to stain the DNA content of the treated cells. […] Meanwhile, the cells of the G2-phase decreased to 6% compared to 8% in the untreated cells.
In the beginning, the IC50 of compound 12e over T-47D (American Type Culture Collection, US) was determined using MTT assay, and the same procedure was applied for A375 and SK-MEL-5. […] Cells were collected by trypsinization, washed two times with ice-cold PBS, and re-suspended in 60% cold ethanol and kept at 4 °C for 60 min. PBS was used to wash the fixed cells and was re-suspended in 1.0 mL of PBS containing 10µg/mL propidium iodide and 50 µg/mL RNAase A. Cells were incubated in the dark at 37 °C for 20min; then, DNA contents were analyzed using flow cytometric analysis using an FL2 (λex/em 535/617 nm) signal detector. For each sample, 12,000 events were acquired. The cell cycle distribution was obtained by using ACEA NovoExpress^TM software.

leukemia cell lines = test: NCI 60 screen, sub-panel mean; format: cell-based, human; details: NCI-60, leukemia sub-panel
Experimental: (§1) Anticancer profiling over a panel of 60 cancer cell lines was carried out at the National Cancer Institute (NCI), Bethesda, Maryland, USA, https://dtp.cancer.gov/discovery_development/nci-60/methodology.htm (Last visit 22 September 2021), using the standard procedure (detailed procedure is located in the Supplementary Information page 50 s).
(§2) NCI standard procedure for 60 cell lines assay
(§3) The human tumor cell lines of the cancer screening panel are grown in RPMI 1640 mediu m containing 5% fetal bovine serum and 2 mM L-glutamine. For a typical screening experiment, cells are inoculated into 96 well microtiter plates in 100 μL at plating densities ranging from 5,000 to 40,000 cells/well depending on the doubling time of individual cell lines. After cell inoculation, the microtiter plates are incubated at 37° C, 5 % CO2, 95 % air and 100 % relative humidity for 24 h prior to addition of experimental drugs.
(§4) After 24 h, two plates of each cell line are fixed in situ with TCA, to represent a measurement of the cell population for each cell line at the time of drug addition (Tz). Experimental drugs are solubilized in dimethyl sulfoxide at 400-fold the desired final maximum test concentration (10 µM) and stored frozen prior to use. At the time of drug addition, an aliquot of frozen concentrate is thawed and diluted to twice the desired final maximum test concentration with co mp lete medium containing 50 μg/ml gentamicin. Additional four, 10-fold or ½ log serial dilutions are made to provide a total of five drug concentrations plus control. Aliquots of 100 μl of these different drug dilutions are added to the appropriate microtiter wells already containing 100 μl of medium, resulting in the required final drug concentrations.
(§5) Following drug addition, the plates are incubated for an additional 48 h at 37°C, 5 % CO2, 95 % air, and 100 % relative humidity. For adherent cells, the assay is terminated by the addition of cold TCA. Cells are fixed in situ by the gentle addition of 50 μl of cold 50 % (w/v) TCA (final concentration, 10 % TCA) and incubated for 60 minutes at 4°C. The supernatant is discarded, and the plates are washed five times with tap water and air dried. Sulforhodamine B (SRB) solution (100 μl) at 0.4 % (w/v) in 1 % acetic acid is added to each well, and plates are incubated for 10 minutes at room temperature. After staining, unbound dye is removed by washing five times with 1 % acetic acid and the plates are air dried. Bound stain is subsequently solubilized with 10 mM trizma base, and the absorbance is read on an automated plate reader at a wavelength of 515 nm. For suspension cells, the methodology is the same except that the assay is terminated by fixing settled cells at the bottom of the wells by g ently adding 50 μl of 80 % TCA (final concentration, 16 % TCA). Using the seven absorbance measurements [time zero, (Tz), control growth, (C), and test growth in the presence of drug at the five concentration levels (Ti)], the percentage growth is calculated at each of the drug concentrations levels. Percentage growth inhibition is calculated as:
(§6) [(Ti-Tz)/(C-Tz)] x 100 for concentrations for which Ti>/=Tz
(§7) [(Ti-Tz)/Tz] x 100 for concentrations for which Ti<Tz.
(§8) Three dose response parameters are calculated for each experimental agent. Growth inhibition of […]
(§9) resulting in a 50% reduction in the net protein increase (as measured by SRB staining) in control cells during the drug incubation. The drug concentration resulting in total growth inhibition […]
(§10) (TGI) is calculated from Ti = Tz.

CNS cancer cell lines = test: NCI 60 screen, sub-panel mean; format: cell-based, human; details: NCI-60, CNS sub-panel
Experimental: as §1, §2, §3, §4, §5, §6, §7, §8, §9, §10

breast cancer cell lines = test: NCI 60 screen, sub-panel mean; format: cell-based, human; details: NCI-60, breast cancer sub-panel
Experimental: as §1, §2, §3, §4, §5, §6, §7, §8, §9, §10

[2] = test system: prostate cancer cell lines; test: NCI 60 screen, sub-panel mean; format: cell-based, human; details: NCI-60, prostate cancer sub-panel
Experimental: as §1, §2, §3, §4, §5, §6, §7, §8, §9, §10

[3] = test system: melanoma cancer cell lines; test: NCI 60 screen, sub-panel mean; format: cell-based, human; details: NCI-60, melanoma sub-panel
Experimental: as §1, §2, §3, §4, §5, §6, §7, §8, §9, §10

renal cancer cell lines = test: NCI 60 screen, sub-panel mean; format: cell-based, human; details: NCI-60, renal cancer sub-panel
Experimental: as §1, §2, §3, §4, §5, §6, §7, §8, §9, §10

[4] = test system: ovarian cancer cell lines; test: NCI 60 screen, sub-panel mean; format: cell-based, human; details: NCI-60, ovarian cancer sub-panel
Experimental: as §1, §2, §3, §4, §5, §6, §7, §8, §9, §10

colon cancer cell lines = test: NCI 60 screen, sub-panel mean; format: cell-based, human; details: NCI-60, colon cancer sub-panel
Experimental: as §1, §2, §3, §4, §5, §6, §7, §8, §9, §10

T-47D cells [5] = test: MTT assay IC50 over T-47D; format: cell-based; details: Homo sapiens, T47D
Experimental: In the beginning, the IC50 of compound 12e over T-47D (American Type Culture Collection, US) was determined using MTT assay, and the same procedure was applied for A375 and SK-MEL-5. T-47D cells (10^5 cells) were treated with 12e (5 µM) and incubated for 48h. Cells were collected by trypsinization, washed two times with ice-cold PBS, and re-suspended in 60% cold ethanol and kept at 4 °C for 60 min. PBS was used to wash the fixed cells and was re-suspended in 1.0 mL of PBS containing 10µg/mL propidium iodide and 50 µg/mL RNAase A. Cells were incubated in the dark at 37 °C for 20min; then, DNA contents were analyzed using flow cytometric analysis using an FL2 (λex/em 535/617 nm) signal detector. For each sample, 12,000 events were acquired. The cell cycle distribution was obtained by using ACEA NovoExpress^TM software.

NCI 60 cancer cell lines = test: NCI 60 cell line screen, mean over panel; format: cell-based, human
Experimental: as §1, §2
The human tumor cell lines of the cancer screening panel are grown in RPMI 1640 mediu m containing 5% fetal bovine serum and 2 mM L-glutamine. […]
Following drug addition, the plates are incubated for an additional 48 h at 37°C, 5 % CO2, 95 % air, and 100 % relative humidity. […] Bound stain is subsequently solubilized with 10 mM trizma base, and the absorbance is read on an automated plate reader at a wavelength of 515 nm. […] Using the seven absorbance measurements [time zero, (Tz), control growth, (C), and test growth in the presence of drug at the five concentration levels (Ti)], the percentage growth is calculated at each of the drug concentrations levels. Percentage growth inhibition is calculated as: […]
Three dose response parameters are calculated for each experimental agent. […]
resulting in a 50% reduction in the net protein increase (as measured by SRB staining) in control cells during the drug incubation. […]
as §10

SMILES | cells in S-phase, treated cells (T-47D cells [1]; control 14%) | cells in G1 phase, treated cells (T-47D cells [1]; control 29%) | cells in G2-phase, treated cells (T-47D cells [1]; untreated 8%) | mean percent inhibition (leukemia cell lines) | mean percent inhibition (CNS cancer cell lines) | mean percent inhibition (breast cancer cell lines) | mean percent inhibition [2] | mean percent inhibition [3] | mean percent inhibition (renal cancer cell lines) | mean percent inhibition [4] | mean percent inhibition (colon cancer cell lines) | IC50 (T-47D cells [5]) | mean percent inhibition over 60-cell line panel (NCI 60 cancer cell lines)
O=S(=O)(NCCNc1nccc(-n2cnc3ccccc32)n1)c1ccc(C(F)(F)F)cc1 [12e, N-(2-((4-(1H-benzo [d]imidazol-1-yl)pyrimidin-2-yl)amino)ethyl)-4-(trifluoromethyl)benzenesulfonamide] | 18% | 31% | 6% | 60% | 50% | more than 60% | 40% | 50% | 45% | 40% | 40% | 5.35 µM | around 50%
Cc1ccc(S(=O)(=O)NCCNc2nccc(-n3cnc4ccccc43)n2)cc1 [12g, N-(2-((4-(1H-benzo [d]imidazol-1-yl)pyrimidin-2-yl)amino)ethyl)-4-methyl benzenesulfonamide] |  |  |  |  |  | around 40% | around 20% |  | around 30% | around 25% |  |  | 
O=S(=O)(NCCCNc1nccc(-n2cnc3ccccc32)n1)c1ccc(F)cc1 [12i, N-(3-((4-(1H-benzo [d]imidazol-1-yl)pyrimidin-2-yl)amino)propyl)-4-fluorobenzenesulfonamide] |  |  |  | 50% |  | around 40% | around 20% |  |  | around 25% |  |  | 
O=S(=O)(NCCCNc1nccc(-n2cnc3ccccc32)n1)c1ccc(C(F)(F)F)cc1 [12l, N-(3-((4-(1H-benzo [d]imidazol-1-yl)pyrimidin-2-yl)amino)propyl)-4-(trifluoromethyl) benzenesulfonamide] |  |  |  | 46% |  | around 40% | around 20% |  | around 30% | around 25% | 30% |  | 
O=S(=O)(NCCCNc1nccc(-n2cnc3ccccc32)n1)c1cccc2ccccc12 [12n, N-(3-((4-(1H-benzo [d]imidazol-1-yl)pyrimidin-2-yl)amino)propyl)naphthalene-1-sulfonamide] |  |  |  |  |  |  | around 20% |  |  |  |  |  | 
